# According to patent US4504580A, “Antibiotics produced by fermentation of a novel strain of Streptomyces hygroscopicus” (Bristol-Myers Company, priority 1983, dated 1985):
# Experiments:
# [1] = system: Pseudomonas aeruginosa A20896; assay: MIC, aminoglycoside-resistant P. aeruginosa A20896; type: cell-based; conditions: Pseudomonas aeruginosa, A20896; Table 9; inactivating enzyme AAC(3)-II; Mueller-Hinton agar; read-out: MIC
# Method: (§1) The minimum inhibitory concentrations (MIC) of Bu-2659A, B, C, D and E were determined for a variety of gram-positive and gram-negative bacteria by the serial two-fold agar dilution method using the Steer's multi-inoculating apparatus. The inoculum was standardized as a 10^4 dilution of an overnight culture of the test organisms in Heart Infusion Broth (Difco). […] Reference antibiotics utilized in these tests included commercially available neomycin as well as its components, neomycins B and C [as used herein, the term "neomycin" means the commercial product containing neomycins B and C at an approximate ratio of 7:3], paromomycin [the commercial product containing >90% of paromomycin I and <10% of paromomycin II] and ribostamycin.
# [2] = system: Staphylococcus aureus A20239; assay: MIC, aminoglycoside-resistant S. aureus A20239; type: cell-based; conditions: Staphylococcus aureus, A20239; Table 9; inactivating enzyme APH(3')-I,II; Mueller-Hinton agar; read-out: MIC
# Method: as §1
# [3] = system: Pseudomonas aeruginosa A9930; assay: MIC by serial two-fold agar dilution, P. aeruginosa A9930; type: cell-based; conditions: Pseudomonas aeruginosa, A9930; Table 7; Mueller-Hinton agar; read-out: MIC
# Method: as §1
# [4] = system: Escherichia coli NR79/W677; assay: MIC, aminoglycoside-resistant E. coli NR79/W677; type: cell-based; conditions: Escherichia coli, NR79/W677
# Method: as §1
# [5] = system: Bacillus brevis IFO 12334; assay: MIC, aminoglycoside-resistant B. brevis IFO 12334; type: cell-based; conditions: Brevibacillus brevis, IFO12334; Table 9; inactivating enzyme ANT (4'); Mueller-Hinton agar; read-out: MIC
# Method: as §1
# [6] = system: Streptococcus pyogenes A20201; assay: Experimental systemic infection in mice, S. pyogenes A20201; type: in vivo; conditions: Streptococcus pyogenes, A20201, 96 h, im, single treatment, 4 days, read-out: PD50
# Method: (§2) The in vivo activity of Bu-2659A was assessed by experimental systemic infection in mice. The pathogenic bacteria used in the in vivo tests were E. coli Juhl, K. pneumoniae D-11, P. mirabilis A9906, S. aureus Smith and S. pyogenes A20201. Mice were challenged intraperitoneally with approximately 100×LD50 dose of the pathogens in a 5% suspension of hog gastric mucin (American Laboratories, Omaha, Neb.). A single intramuscular treatment with the antibiotic was given immediately after the bacterial challenge. […] Neomycin was comparatively tested as a reference compound. […] In terms of PD50 value Bu-2659A was about one-half as active as neomycin against infections with S. aureus and S. pyogenes.
# [7] = system: Klebsiella pneumoniae D11; assay: MIC by serial two-fold agar dilution, K. pneumoniae D11; type: cell-based; conditions: Klebsiella pneumoniae, D11; Table 7; Mueller-Hinton agar; read-out: MIC
# Method: as §1
# [8] = system: species of Streptococcus and Mycobacterium; assay: Antibacterial activity (MIC), overall, Streptococcus and Mycobacterium, Table 8; type: cell-based
# Method: as §1
# [9] = system: Enterobacter cloacae A20364; assay: MIC, aminoglycoside-resistant E. cloacae A20364; type: cell-based; conditions: Enterobacter cloacae, A20364; Table 9; inactivating enzyme APH(3')-I; Mueller-Hinton agar; read-out: MIC
# Method: as §1
# [10] = system: Escherichia coli A20732; assay: MIC, aminoglycoside-resistant E. coli A20732; type: cell-based; conditions: Escherichia coli, A20732; Table 9; inactivating enzyme ANT(2"); Mueller-Hinton agar; read-out: MIC
# Method: as §1
# [11] = system: Staphylococcus aureus Smith; assay: MIC by serial two-fold agar dilution, S. aureus Smith; type: cell-based; conditions: Staphylococcus aureus; Table 7; Mueller-Hinton agar; read-out: MIC
# Method: as §1
# [12] = system: Micrococcus flavus D12; assay: MIC by serial two-fold agar dilution, M. flavus D12; type: cell-based; conditions: Micrococcus flavus, D12; Table 7; Mueller-Hinton agar; read-out: MIC
# Method: as §1
# [13] = system: Escherichia coli Juhl; assay: Experimental systemic infection in mice, E. coli Juhl; type: in vivo; conditions: Escherichia coli, 96 h, im, single treatment, 4 days, read-out: PD50
# Method: as §2
# [14] = system: Escherichia coli JR66/W677; assay: MIC, aminoglycoside-resistant E. coli JR66/W677; type: cell-based; conditions: Escherichia coli, JR66/W677
# Method: as §1
# [15] = system: Serratia marcescens A20019; assay: MIC by serial two-fold agar dilution, S. marcescens A20019; type: cell-based; conditions: Serratia marcescens, A20019; Table 7; Mueller-Hinton agar; read-out: MIC
# Method: as §1
# [16] = system: resistant strains which produce APH(3') or AAC(3); assay: Susceptibility of aminoglycoside resistant organisms (MIC), overall, Table 9; type: cell-based; conditions: several resistant strains which produce APH(3') or AAC(3)
# Method: as §1
# [17] = system: Proteus mirabilis A9906; assay: Experimental systemic infection in mice, P. mirabilis A9906; type: in vivo; conditions: Proteus mirabilis, A9906, 96 h, im, single treatment, 4 days, read-out: PD50
# Method: as §2
# [18] = system: Haemophilus influenzae A9729; assay: MIC by serial two-fold agar dilution, H. influenzae A9729; type: cell-based; conditions: Haemophilus influenzae, A9729; Table 8; GC medium; read-out: MIC
# Method: as §1
# [19] = system: Micrococcus luteus PCI 1001; assay: MIC by serial two-fold agar dilution, M. luteus PCI 1001; type: cell-based; conditions: Micrococcus luteus, PCI1001; Table 7; Mueller-Hinton agar; read-out: MIC
# Method: as §1
# [20] = system: Staphylococcus aureus D136; assay: MIC by serial two-fold agar dilution, S. aureus D136; type: cell-based; conditions: Staphylococcus aureus, D136; Table 7; Mueller-Hinton agar; read-out: MIC
# Method: as §1
# [21] = system: Klebsiella pneumoniae D-11; assay: Experimental systemic infection in mice, K. pneumoniae D-11; type: in vivo; conditions: Klebsiella pneumoniae, D11, 96 h, im, single treatment, 4 days, read-out: PD50
# Method: as §2
# [22] = system: Neisseria meningitidis A21496; assay: MIC by serial two-fold agar dilution, N. meningitidis A21496; type: cell-based; conditions: Neisseria meningitidis, A21496; Table 8; GC medium; read-out: MIC
# Method: as §1
# [23] = system: Mycobacterium ranae; assay: MIC by serial two-fold agar dilution, M. ranae; type: cell-based; conditions: Mycobacterium; Table 8; No. 1001 medium; read-out: MIC
# Method: as §1
# [24] = system: Proteus morganii A9553; assay: MIC by serial two-fold agar dilution, P. morganii A9553; type: cell-based; conditions: Morganella morganii, A9553; Table 7; Mueller-Hinton agar; read-out: MIC
# Method: as §1
# [25] = system: Proteus vulgaris A9436; assay: MIC by serial two-fold agar dilution, P. vulgaris A9436; type: cell-based; conditions: Proteus vulgaris, A9436; Table 7; Mueller-Hinton agar; read-out: MIC
# Method: as §1
# [26] = system: Proteus mirabilis A9554; assay: MIC by serial two-fold agar dilution, P. mirabilis A9554; type: cell-based; conditions: Proteus mirabilis, A9554; Table 7; Mueller-Hinton agar; read-out: MIC
# Method: as §1
# [27] = system: Escherichia coli A20107; assay: MIC, aminoglycoside-resistant E. coli A20107; type: cell-based; conditions: Escherichia coli, A20107; Table 9; inactivating enzyme APH(3')-II; Mueller-Hinton agar; read-out: MIC
# Method: as §1
# [28] = system: Streptococcus pyogenes A20201; assay: MIC by serial two-fold agar dilution, S. pyogenes A20201; type: cell-based; conditions: Streptococcus pyogenes, A20201; Table 8; GC medium; read-out: MIC
# Method: as §1
smiles,measurement,setting,value
"NC[C@@H]1O[C@H](O[C@H]2[C@@H](O)[C@H](O[C@@H]3[C@@H](O)[C@H](O)C[C@H](N)[C@H]3O[C@H]3O[C@H](CN)[C@@H](O)[C@H](O)[C@H]3N)O[C@@H]2CO)[C@H](N)[C@@H](O)[C@@H]1O [Bu-2659A, 1-deamino-1-hydroxyneomycin B]",MIC,[1],> 100 µg/mL
same,MIC,[2],12.5 µg/mL
same,MIC,[3],1.6 µg/mL
same,MIC,[4],50 µg/mL
same,MIC,[5],> 100 µg/mL
same,ED50,[6],50 mg/kg
same,MIC,[7],0.2 µg/mL
same,"activity against Streptococcus and Mycobacterium, in words",[8],equivalent activity
same,MIC,[9],50 µg/mL
same,MIC,[10],0.8 µg/mL
same,MIC,[11],1.6 µg/mL
same,MIC,[12],6.3 µg/mL
same,ED50,[13],3.1 mg/kg
same,MIC,[14],> 100 µg/mL
same,MIC,[15],3.1 µg/mL
same,"activity against aminoglycoside-resistant strains, in words",[16],"more active than neomycin, paromomycin and ribostamycin"
same,ED50,[17],2.5 mg/kg
same,MIC,[18],50 µg/mL
same,MIC,[19],3.1 µg/mL
same,MIC,[20],0.8 µg/mL
same,ED50,[21],1.1 mg/kg
same,MIC,[22],50 µg/mL
same,MIC,[23],0.4 µg/mL
same,MIC,[24],1.6 µg/mL
same,MIC,[25],0.4 µg/mL
same,MIC,[26],0.8 µg/mL
same,MIC,[27],25 µg/mL
same,MIC,[28],25 µg/mL
